From US20220041681A1 (MEDIMMUNE LIMITED, priority 2016, published 2022)
Numbered stars: 1 amine (or outer) side, 2 acyl side, 3 side chain; on linkers, the order of the positions; unused ones are H or OH. Side chains are listed from the residue outwards. Peptide text beside a SMILES is read from it. * marks the point of attachment. γGlu = O=C(O)[C@H](CCC(=O)[*:2])N[*:1]; Palmitoyl = CCCCCCCCCCCCCCCC(=O)*; Ahx = NCCCCCC(=O)O; βAla = NCCC(=O)O

Key:
Human GLP1R = Human GLP1R (Homo sapiens, UniProt P43220); experiment: cAMP activity assay (assay 1) in assay medium; type: cell-based; conditions: Table 4, additional peptides, read-out: hGLP1R EC50
Chain of Human GLP1R (P43220 24-463): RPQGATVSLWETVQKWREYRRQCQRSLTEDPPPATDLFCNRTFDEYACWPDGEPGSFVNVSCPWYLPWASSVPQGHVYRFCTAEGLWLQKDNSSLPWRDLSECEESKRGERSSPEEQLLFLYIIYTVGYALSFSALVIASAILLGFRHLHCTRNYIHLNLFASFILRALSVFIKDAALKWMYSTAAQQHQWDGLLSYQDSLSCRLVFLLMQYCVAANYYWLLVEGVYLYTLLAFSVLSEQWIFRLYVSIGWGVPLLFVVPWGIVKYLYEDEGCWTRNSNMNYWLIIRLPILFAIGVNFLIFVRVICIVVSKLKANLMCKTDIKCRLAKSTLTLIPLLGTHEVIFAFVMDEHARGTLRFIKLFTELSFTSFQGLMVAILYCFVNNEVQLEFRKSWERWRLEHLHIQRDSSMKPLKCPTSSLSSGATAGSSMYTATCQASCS
Protocol: (§2) All sample dilutions were made in duplicate.
(§3) A frozen cryo-vial of cells expressing the receptor of interest was thawed rapidly in a water-bath, transferred to pre-warmed assay media and spun at 240×g for 5 minutes. Cells were re-suspended in assay media at an optimized concentration (e.g. hGCGR cells at 1×10^5 cells/ml, hGLP-1R and hGIPR cells at 0.5×10^5 cells/ml).
(§4) To this, 5 μL cell suspension was added and the plates incubated at room temperature for 30 minutes.
(§5) cAMP levels were measured using a commercially available cAMP dynamic 2 HTRF kit (Cisbio, Cat #62AM4PEJ), following the two step protocol as per manufacturer's recommendations. In brief; anti-cAMP cryptate (donor fluorophore) and cAMP-d2 (acceptor fluorophore) were made up separately by diluting each 120 in conjugate & lysis buffer provided in the kit. 5 μL anti-cAMP cryptate was added to all wells of the assay plate, and 5 μL cAMP-d2 added to all wells except non-specific binding (NSB) wells, to which conjugate and lysis buffer was added.

Human GlucR = biological target: T1, Human GlucR (Homo sapiens, UniProt P47871); experiment: cAMP activity assay (assay 1) in assay medium; type: cell-based; conditions: Table 4, additional peptides, read-out: hGlucR EC50
T1 construct: expressed in transfected cells
T1 sequence (P47871 26-477): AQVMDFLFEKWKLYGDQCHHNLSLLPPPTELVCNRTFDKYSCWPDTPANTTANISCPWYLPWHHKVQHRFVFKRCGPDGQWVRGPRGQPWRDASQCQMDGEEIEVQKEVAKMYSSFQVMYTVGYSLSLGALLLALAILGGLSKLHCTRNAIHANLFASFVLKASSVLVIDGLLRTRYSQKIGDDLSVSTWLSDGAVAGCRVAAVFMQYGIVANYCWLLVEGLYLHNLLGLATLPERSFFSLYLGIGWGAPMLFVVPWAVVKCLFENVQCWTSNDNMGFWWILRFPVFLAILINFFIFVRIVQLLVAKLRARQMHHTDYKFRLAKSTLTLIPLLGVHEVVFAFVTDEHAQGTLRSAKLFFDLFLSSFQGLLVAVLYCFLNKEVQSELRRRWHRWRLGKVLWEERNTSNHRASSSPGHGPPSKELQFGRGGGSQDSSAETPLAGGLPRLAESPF
Protocol: as §2, §3, §4, §5

[1] = system: diet induced obesity (DIO) mouse model; experiment: Diet induced obesity (DIO) mouse model, study B; type: in vivo
Protocol: (§1) The body weight of the animals was monitored daily throughout the dosing period. At day 14, blood samples for the measurement of plasma glucose and insulin from conscious mice were obtained after a 4-hour fasting period. Mice were then anaesthetized using isoflourane and terminal blood was collected from the capillary bed behind the eye. The following parameters were measured: blood chemistry measurements of triglycerides, total cholesterol, non-esterified fatty acids (NEFA), beta-hydroxybutyrate and fibroblast growth factor 21 (FGF21) (Table 16 and Table 17 below).

[2] = system: diet induced obesity (DIO) mouse model; experiment: Diet induced obesity (DIO) mouse model, study A; type: in vivo
Text: Female C57/Bl6JHsdOla (obtained from Harlan Laboratories. UK) were started on a high fat diet of D12492 (Research Diets, NJ, USA) and a chocolate confection, delicato ball (Delicata Bakverk, Sweden) at 9-11 weeks of age, and were maintained on the diet for 16 weeks prior to arrival to the animal facility, during a three week acclimation period and during drug treatment, caloric content of the two components of the diet is shown in Table 11. The mice were divided into 9 groups (n=5-6), and treatment was started at 29 weeks of age.
as §1, with “throughout die” for “throughout the”, “using isofluorane” for “using isoflourane”, “(FGF21) (Tables 14” for “(FGF21) (Table 16”, “and 15” for “and Table 17”

[3] = 27 nmol/kg sc twice daily, day 14
[4] = 27 nmol/kg sc twice daily, day 14, 4-hour fasting

CCCCCCCCCCCCCCCC(=O)N[C@@H](CCC(=O)NCCCC[C@H](NC(=O)[C@H](CCC(=O)O)NC(=O)[C@H](CO)NC(=O)[C@H](Cc1ccc(O)cc1)NC(=O)[C@H](CC(=O)O)NC(=O)[C@H](CO)NC(=O)[C@@H](NC(=O)[C@H](Cc1ccccc1)NC(=O)[C@@H](NC(=O)CNC(=O)[C@H](CCC(N)=O)NC(=O)[C@H](CO)NC(=O)[C@@H](N)Cc1c[nH]cn1)[C@@H](C)O)[C@@H](C)O)C(=O)N[C@@H](CC(C)C)C(=O)N[C@@H](CC(=O)O)C(=O)N[C@@H](CO)C(=O)N[C@@H](CCC(=O)O)C(=O)N[C@@H](CCCNC(=N)N)C(=O)N[C@@H](C)C(=O)N[C@@H](CCCNC(=N)N)C(=O)N[C@@H](CC(=O)O)C(=O)N[C@@H](Cc1ccccc1)C(=O)N[C@H](C(=O)N[C@@H](C)C(=O)N[C@@H](Cc1c[nH]c2ccccc12)C(=O)N[C@@H](CC(C)C)C(=O)N[C@H](C(=O)N[C@@H](C)C(=O)NCC(=O)NCC(N)=O)C(C)C)C(C)C)C(=O)O [g802] (H-HSQGTFTSDYSEK([γGlu-Palmitoyl])LDSERARDFVAWLVAGG-NH2; N-terminus assumed)
EC50 (Human GLP1R): 0.0364 nM

CCCCCCCCCCCCCCCC(=O)NCCCCCC(=O)NCCCC[C@H](NC(=O)[C@H](CO)NC(=O)[C@H](CC(=O)O)NC(=O)[C@H](CC(C)C)NC(=O)[C@H](Cc1ccc(O)cc1)NC(=O)[C@H](CCC(=O)O)NC(=O)[C@H](CO)NC(=O)[C@H](Cc1ccc(O)cc1)NC(=O)[C@H](CC(=O)O)NC(=O)[C@H](CO)NC(=O)[C@@H](NC(=O)[C@H](Cc1ccccc1)NC(=O)[C@@H](NC(=O)CNC(=O)[C@H](CCC(N)=O)NC(=O)CNC(=O)[C@@H](N)Cc1c[nH]cn1)[C@@H](C)O)[C@@H](C)O)C(=O)N[C@@H](CCCNC(=N)N)C(=O)N[C@@H](C)C(=O)N[C@@H](CCCNC(=N)N)C(=O)N[C@@H](CC(=O)O)C(=O)N[C@@H](Cc1ccccc1)C(=O)N[C@H](C(=O)N[C@@H](C)C(=O)N[C@@H](Cc1c[nH]c2ccccc12)C(=O)N[C@@H](CC(C)C)C(=O)N[C@@H](CCC(=O)O)C(=O)N[C@@H](CCCNC(=N)N)C(=O)NCC(=O)NCC(N)=O)C(C)C [g684] (H-HGQGTFTSDYSEYLDSK([Ahx-Palmitoyl])RARDFVAWLERGG-NH2; N-terminus assumed)
EC50 (Human GLP1R): 0.0161 nM

CCCCCCCCCCCCCCCC(=O)NCCC(=O)NCCCC[C@H](NC(=O)[C@H](CO)NC(=O)[C@H](CC(=O)O)NC(=O)[C@H](CC(C)C)NC(=O)[C@H](Cc1ccc(O)cc1)NC(=O)[C@H](CCC(=O)O)NC(=O)[C@H](CO)NC(=O)[C@H](Cc1ccc(O)cc1)NC(=O)[C@H](CC(=O)O)NC(=O)[C@H](CO)NC(=O)[C@@H](NC(=O)[C@H](Cc1ccccc1)NC(=O)[C@@H](NC(=O)CNC(=O)[C@H](CCC(=O)O)NC(=O)[C@H](CO)NC(=O)[C@@H](N)Cc1c[nH]cn1)[C@@H](C)O)[C@@H](C)O)C(=O)N[C@@H](CCCNC(=N)N)C(=O)N[C@@H](C)C(=O)N[C@@H](CCCNC(=N)N)C(=O)N[C@@H](CC(=O)O)C(=O)N[C@@H](Cc1ccccc1)C(=O)N[C@H](C(=O)N[C@@H](C)C(=O)N[C@@H](Cc1c[nH]c2ccccc12)C(=O)N[C@@H](CC(C)C)C(=O)N[C@@H](CCC(=O)O)C(=O)N[C@@H](C)C(=O)NCC(=O)NCC(N)=O)C(C)C [g734] (H-HSEGTFTSDYSEYLDSK([βAla-Palmitoyl])RARDFVAWLEAGG-NH2; N-terminus assumed)
EC50 (Human GlucR): 8280 nM

CCCCCCCCCCCCCCCC(=O)NCCCCCC(=O)NCCCC[C@H](NC(=O)[C@H](CO)NC(=O)[C@H](CC(=O)O)NC(=O)[C@H](CC(C)C)NC(=O)[C@H](Cc1ccc(O)cc1)NC(=O)[C@H](CCC(=O)O)NC(=O)[C@H](CO)NC(=O)[C@H](Cc1ccc(O)cc1)NC(=O)[C@H](CC(=O)O)NC(=O)[C@H](CO)NC(=O)[C@@H](NC(=O)[C@H](Cc1ccccc1)NC(=O)[C@@H](NC(=O)CNC(=O)[C@H](CCC(N)=O)NC(=O)CNC(=O)[C@@H](N)Cc1c[nH]cn1)[C@@H](C)O)[C@@H](C)O)C(=O)N[C@@H](CCCNC(=N)N)C(=O)N[C@@H](C)C(=O)N[C@@H](C)C(=O)N[C@@H](CC(=O)O)C(=O)N[C@@H](Cc1ccccc1)C(=O)N[C@H](C(=O)N[C@@H](C)C(=O)N[C@@H](Cc1c[nH]c2ccccc12)C(=O)N[C@@H](CC(C)C)C(=O)N[C@@H](CCC(=O)O)C(=O)N[C@@H](CCCNC(=N)N)C(=O)NCC(=O)NCC(N)=O)C(C)C [g683]
EC50 (Human GlucR): 0.372 nM

CCCCCCCCCCCCCCCC(=O)N[C@@H](CCC(=O)NCCCC[C@H](NC(=O)[C@H](C)NC(=O)[C@H](C)NC(=O)[C@H](CCC(N)=O)NC(=O)CNC(=O)[C@H](CCC(=O)O)NC(=O)[C@H](CC(C)C)NC(=O)[C@H](Cc1ccc(O)cc1)NC(=O)[C@H](CO)NC(=O)[C@H](CO)NC(=O)[C@@H](NC(=O)[C@H](CC(=O)O)NC(=O)[C@H](CO)NC(=O)[C@@H](NC(=O)[C@H](Cc1ccccc1)NC(=O)[C@@H](NC(=O)CNC(=O)[C@H](CCC(=O)O)NC(=O)[C@H](C)NC(=O)[C@@H](N)Cc1cnc[nH]1)[C@@H](C)O)[C@@H](C)O)C(C)C)C(=O)N[C@@H](CCC(=O)O)C(=O)N[C@@H](Cc1ccccc1)C(=O)N[C@H](C(=O)N[C@@H](C)C(=O)N[C@@H](Cc1c[nH]c2ccccc12)C(=O)N[C@@H](CC(C)C)C(=O)N[C@H](C(=O)N[C@@H](CCCNC(=N)N)C(=O)NCC(=O)N[C@@H](CCCNC(=N)N)C(=O)NCC(=O)O)C(C)C)[C@@H](C)CC)C(=O)O [Liraglutide, reference compound]
BW day 14 (% change of vehicle mean) ([1]; 27 nmol/kg sc twice daily for 14 days): −14%
FGF 21 [1, 3]: 2990 pg/mL
HOMA [1, 3]: 3.51
Hepatic TG [1, 3]: 18.4 g TG/100 g tissue
Plasma Cholesterol [1, 3]: 3.26 mM
Plasma NEFA [1, 3]: 0.29 mM
Plasma TG [1, 3]: 0.28 mM
Glucose [1, 4]: 7.7 mM
Insulin [1, 4]: 0.31 nM
BW day 14 (% change of vehicle mean) ([2]; 27 nmol/kg sc twice daily 14 days): −13.3%
BeHy ([2]; 27 nmol/kg, day 14): 345 u mol/l
FGF 21 ([2]; 27 nmol/kg, day 14): 2481 pg/mL
HOMA ([2]; 27 nmol/kg, day 14): 2.8
Hepatic TG ([2]; 27 nmol/kg, day 14): 13.1 g TB/100 g tissue
Insulin ([2]; 27 nmol/kg, day 14): 0.3 nM
Plasma Cholesterol ([2]; 27 nmol/kg, day 14): 3.75 mM
Plasma NEFA ([2]; 27 nmol/kg, day 14): 0.24 Mm
Plasma TG ([2]; 27 nmol/kg, day 14): 0.24 mM
Glucose ([2]; 27 nmol/kg, day 14, 4-hour fasting): 8.0 mM

CCCCCCCCCCCCCCCC(=O)N[C@@H](CCC(=O)NCCCC[C@H](NC(=O)[C@H](CO)NC(=O)[C@H](CC(=O)O)NC(=O)[C@H](CC(C)C)NC(=O)[C@H](Cc1ccc(O)cc1)NC(=O)[C@H](CCCCN)NC(=O)[C@H](CO)NC(=O)[C@H](Cc1ccc(O)cc1)NC(=O)[C@H](CC(=O)O)NC(=O)[C@H](CO)NC(=O)[C@@H](NC(=O)[C@H](Cc1ccccc1)NC(=O)[C@@H](NC(=O)CNC(=O)[C@H](CCC(=O)O)NC(=O)[C@H](CO)NC(=O)[C@@H](N)Cc1c[nH]cn1)[C@@H](C)O)[C@@H](C)O)C(=O)N[C@@H](CCCNC(=N)N)C(=O)N[C@@H](C)C(=O)N[C@@H](CCC(=O)O)C(=O)N[C@@H](CC(=O)O)C(=O)N[C@@H](Cc1ccccc1)C(=O)N[C@H](C(=O)N[C@@H](CCC(=O)O)C(=O)N[C@@H](Cc1c[nH]c2ccccc12)C(=O)N[C@@H](CC(C)C)C(=O)N[C@H](C(=O)N[C@@H](C)C(=O)NCC(=O)NCC(N)=O)C(C)C)C(C)C)C(=O)O [g639] (H-HSEGTFTSDYSKYLDSK([γGlu-Palmitoyl])RAEDFVEWLVAGG-NH2; N-terminus assumed)
EC50 (Human GlucR): 8210 nM
